Measured values from patent publication US5135943A, “1H-imidazole derivative compounds and pharmaceutical compositions containing the same” (priority 1984, dated 1992).
In brackets after ≈: the same amount, converted by molar mass. Where two headings read alike, the source gives them in different places.

Assays:
[1] = Acute toxicity in Swiss mice i.p.; conditions: mouse, in vivo, ip
Text: Such signs included convulsions and Straub tail(vertical righting of the tail).

C. albicans 15 = test: MIC, comparative in vitro testing against Martin compounds; format: cell-based; conditions: Candida albicans, 15, 48 h, Casitone medium, reading time 48 h; SZ vs M4
Experimental: (§1) Minimum Inhibitory Concentrations (MICS) of Sertaconazole were also measured in comparison to four of the compounds described in the Martin Patent, including a compound, referred to herein as Martin Compound 1, which has the same structure as Sertaconazole, expect that the sulfur in the benzothiophene ring is replaced by an oxygen.
(§2) The results of comparative in vitro testing of Sertaconazole and these four Martin compounds are shown in the following Table II against 16 microorganisms. The reading time is the time interval from the time of inoculation to the time of measurement.

C. pseudotropicalis 21 = test: as above; format: cell-based; conditions: Kluyveromyces marxianus, 21; Sabouraud medium, reading time 48 h; SZ vs M4; read-out: MIC
Experimental: as §1, §2

C. tropicalis 25 = test: as above; format: cell-based; conditions: Candida tropicalis, 25, 48 h, YNB medium, reading time 48 h; SZ vs M4
Experimental: as §1, §2

C. krusei 24 = test: as above; format: cell-based; conditions: Pichia kudriavzevii, 24, 48 h, reading time 48 h, SZ vs M4, read-out: MIC
Experimental: as §1, §2

C. albicans 31 = test: as above; format: cell-based; conditions: Candida albicans, 31; YNB medium, reading time 48 h; SZ vs M4; read-out: MIC
Experimental: as §1, §2

C. parapsilosis 19 = test: as above; format: cell-based; conditions: 19, 48 h, reading time 48 h, SZ vs M4
Experimental: as §1, §2

C. stellatoidea 36232 = test: as above; format: cell-based; conditions: Candida albicans, 36232, 48 h, reading time 48 h, SZ vs M4
Experimental: as §1, §2

C. albicans 14 = test: as above; format: cell-based; conditions: Candida albicans, 14, 48 h, Casitone medium, reading time 48 h; SZ vs M4
Experimental: as §1, §2

C. albicans 32 = test: as above; format: cell-based; conditions: Candida albicans, 32; YNB medium, reading time 48 h; SZ vs M4; read-out: MIC
Experimental: as §1, §2

C. guillermondii = test: as above; format: cell-based; conditions: 48 h, reading time 48 h, SZ vs M4, read-out: MIC
Experimental: as §1, §2

C. albicans ATCC E-10231 = test: as above; format: cell-based; conditions: Candida albicans, ATCCE10231; Casitone medium, reading time 48 h; SZ vs M4; read-out: MIC
Experimental: as §1, §2

16 microorganisms = test: Geometric mean of all MIC measurements, comparative in vitro testing; format: cell-based; conditions: 48 h, SZ vs M4, reading time 48 h; read-out: Geometric means of MIC
Experimental: as §1, §2

Candida s.p. = test: MIC by two-fold dilution, Candida s.p.; format: cell-based; conditions: Candida; 15 strains; read-out: Minimum Inhibitory Concentration
Experimental: (§3) Minimum Inhibitory Concentrations (MICS) of Sertaconazole and Miconazole against 107 yeasts, 47 dermatophytes and 4 fungi were determined by a two-fold dilution method.

Candida albicans [2] = test: MIC by two-fold dilution, Candida albicans; format: cell-based
Text: (§4) A number of compounds with antimycotic and/or fungicidal properties, which are useful in pharmaceutical compositions, are currently known. These include the commercially successful Miconazole having the formula II [drawing 2] Miconazole has a structure chemically similar to the 1H-imidazole derivative compounds of the invention. Miconazole is effective against a number of yeasts, dermatophytes and fungi. This effectiveness can be measured by culturing these microorganisms in vitro and applying a preparation containing the antimycotic compound, Miconazole. The results of this type of in vitro experiment is expressed in terms of the Minimum Inhibitory Concentration (MIC), i.e. the minimum concentration which inhibits the growth of the microorganism. For example, the MIC for Miconazole against a particular Candida albicans strain is found to be 10.7 micrograms/milliliter. The effectiveness of Miconazole as an antimycotic compound is measured in vivo by applying a suspension containing the drug to the skin of a number of animals and measuring the proportion of animals on which growth of the microorganism is inhibited as a function of time. Typically, after 25 days, about 1/4 of the animals were cured, when treated with a cream containing 2 % by weight Miconazole. Of course, any pharmaceutical preparation for treating a disease in a human must satisfy certain toxicity requirements. […] Toxicity tests have been performed on the IH-imidazole derivative compounds of the invention and on Miconazole and other known compounds having antimycotic properties. In toxicity tests the LD50 (the dose at which 50 % mortality occurs) is measured.
as §3

[3] = Acute toxicity (LD50) in mouse, three administration routes; conditions: in vivo
Text: as §4
(§5) Toxicity of Sertaconazole, Microazole and Martin's compounds 1, 2 and 3, as shown below, has been tested by standard methods. Both acute toxicity, subacute toxicity and chronic toxicity were studied
(§6) Oral, intraperitoneal and subcutaneous acute toxicity of sertaconazole and miconazole have been investigated. LD50 in mouse and rat, male and female, were measured.

Chronic toxicity in rats = format: in vivo, rat; conditions: rat, in vivo; 100 mg/kg or more dosage
Microsporum canis = test: MIC by two-fold dilution, Microsporum canis; format: cell-based; conditions: 4 strains, read-out: Minimum Inhibitory Concentration
Experimental: as §3

Trichophyton rubrus = test: MIC by two-fold dilution, Trichophyton rubrus; format: cell-based; conditions: 10 strains, read-out: Minimum Inhibitory Concentration
Experimental: as §3

Trichophyton rubrum = test: Randomized double blind clinical trials, Trichophyton rubrum infection; format: in vivo, human; conditions: 2 % cream (nitrate salts), 28 days treatment
Experimental: (§7) Human clinical trials were performed with Sertaconazole nitrate and Miconazole nitrate acid addition salts. Randomized double blind trials were carried out with 502 patients suffering from cutaneous mycosis as confirmed by microscopic examination and microbiological culture. 247 patients were treated with 2 % Sertaconazole cream and the remaining 255 patients were treated with 2 % Miconazole cream. All patients received scheduled treatment for 28 days and were followed up for an additional 28 days for possible relapses.

Candida tropicalis = test: MIC by two-fold dilution, Candida tropicalis; format: cell-based; conditions: read-out: Minimum Inhibitory Concentration
Experimental: as §3

rats = test: Prolonged subacute toxicity in rats; format: in vivo, rat; conditions: p.o.
Experimental: (§8) In a study of prolonged subacute toxicity of Miconazole in rats, among other effects, significant hepatomegalias in females with a dosage of under 30 mg/kg p.o. and in males with a dosage of under 60 mg/kg p.o. were observed.

[4] = Acute toxicity (LD50) in rat, three administration routes; conditions: in vivo, males
Experimental: as §5, §6

Dermatophytes, Others = test: MIC by two-fold dilution, other dermatophytes; format: cell-based; conditions: 3 strains; read-out: Minimum Inhibitory Concentration
Experimental: as §3

[5] = test system: Trichophyton menta-grophytes; test: MIC by two-fold dilution, Trichophyton mentagrophytes; format: cell-based; conditions: 30 strains, read-out: Minimum Inhibitory Concentration
Experimental: as §3

cutaneous mycosis = test: Randomized double blind clinical trials, cutaneous mycosis; conditions: 2 % cream (nitrate salts)
Experimental: as §7

Torulopsis glabrata = test: MIC by two-fold dilution, Torulopsis glabrata; format: cell-based; conditions: Nakaseomyces glabratus; 10 strains; read-out: Minimum Inhibitory Concentration
Experimental: as §3

Candida albicans [6] = test: Vaginal infection by Candida albicans in female mice; format: in vivo; conditions: seven days after infection
Text: Besides the above in vivo experiments vaginal infection by Candida albicans was studied in female mice. Standard methods were used. […] Similar results were found in experiments where repeated dosages of active compound were used after infection. These in vivo results confirmed the surprising speed of action of Sertaconazole in comparison to the prior art compounds.

[7] = test system: Trichophyton mcntagrophytes; test: Dermal infection in albino female guinea pigs by Trichophyton mentagrophytes; format: in vivo, guinea pig; conditions: for % microbiological healing / Negative Cultures to Total Cultures: 2% cream
Text: as §4
Dermal infection in albino female guinea pigs by Trichophyton mcntagrophytes has been studied. Animals were distributed in three groups: a) a control group of infected untreated animals; b) a scrtaconazole group of infected and treated animals; and c) a miconazole group of infected and treated animals. Animals were depleted and a 0.4 ml suspension of the microorganism was applied on the depleted area. Treatment with each of the test drugs was made by application of 1 g of 2% cream on the depleted area on the 4th, 5th and 6th day after infection.

Gram-positive germs = test: MIC by two-fold dilution, Gram-positive germs; format: cell-based; conditions: 21 strains; read-out: Minimum Inhibitory Concentration
[8] = Safe dosage based on the toxicity findings; conditions: rat, in vivo
Experimental: as §8
Based on these finds a safe dosage for Miconazole is about 10 mg/kg, while a safe dosage for Sertaconzole is about 150 mg/kg, i.e about 15 times higher.

[9] = test system: Scopulariopsis brevi-caulis; test: MIC by two-fold dilution, Scopulariopsis brevicaulis; format: cell-based; conditions: Scopulariopsis; 4 strains; read-out: Minimum Inhibitory Concentration
Experimental: as §3

Clc1ccc(C(Cn2ccnc2)OCc2coc3cc(Cl)cc(Cl)c23)c(Cl)c1 (stereo not shown) [Martin compound 4, reference compound]
LD50 [1]: < 1000 mg/kg | MIC (C. albicans 15): 0.03 µg/mL (≈ 0.0658 µM) | MIC (C. pseudotropicalis 21): 0.03 µg/mL (≈ 0.0658 µM) | MIC (C. tropicalis 25): 8 µg/mL (≈ 17.5 µM) | MIC (C. krusei 24; Casitone medium): 0.5 µg/mL (≈ 1.1 µM) | MIC (C. krusei 24; YNB medium): 0.5 µg/mL (≈ 1.1 µM) | MIC (C. albicans 31): 8 µg/mL (≈ 17.5 µM) | MIC (C. parapsilosis 19; Sabouraud medium): 0.5 µg/mL (≈ 1.1 µM) | MIC (C. parapsilosis 19; YNB medium): 0.5 µg/mL (≈ 1.1 µM) | MIC (C. stellatoidea 36232; Casitone medium): 0.06 µg/mL (≈ 0.132 µM) | MIC (C. stellatoidea 36232; Sabouraud medium): 0.5 µg/mL (≈ 1.1 µM) | MIC (C. stellatoidea 36232; YNB medium): 0.5 µg/mL (≈ 1.1 µM) | MIC (C. albicans 14): 0.5 µg/mL (≈ 1.1 µM) | MIC (C. albicans 32): 8 µg/mL (≈ 17.5 µM) | MIC (C. guillermondii; Casitone medium): 0.5 µg/mL (≈ 1.1 µM) | MIC (C. guillermondii; YNB medium): 0.5 µg/mL (≈ 1.1 µM) | MIC (C. albicans ATCC E-10231): 0.5 µg/mL (≈ 1.1 µM) | MIC (16 microorganisms): 0.518 µg/mL (≈ 1.14 µM)

Clc1ccc(COC(Cn2ccnc2)c2ccc(Cl)cc2Cl)c(Cl)c1 (stereo not shown) [Miconazole, reference compound]
MIC (Candida s.p.): 0.95 µg/mL (≈ 2.28 µM) | MIC (Candida albicans [2]; Candida albicans, 52 strains, read-out: Minimum Inhibitory Concentration): 10.7 µg/mL (≈ 25.7 µM) | MIC (Candida albicans [2]; a particular Candida albicans strain, read-out: MIC): 10.7 µg/mL (≈ 25.7 µM) | LD50 ([3]; ip, intraperitoneal): ~600 mg/kg | LD50 ([3]; ip, intraperitoneal, males): 662 mg/kg | LD50 ([3]; po): ~2500 mg/kg | LD50 ([3]; po, males): 2560 mg/kg | LD50 ([3]; sc, subcutaneous): > 5000 mg/kg | LD50 ([3]; sc, subcutaneous, males): > 5000 mg/kg | mortality (Chronic toxicity in rats): 32% | MIC (Microsporum canis): 2 µg/mL (≈ 4.81 µM) | MIC (Trichophyton rubrus): 0.3 µg/mL (≈ 0.721 µM) | effectiveness against Trichophyton rubrum (Trichophyton rubrum): 79% | MIC (Candida tropicalis): 5.6 µg/mL (≈ 13.5 µM) | dosage with significant hepatomegalias (rats; females): under 30 mg/kg | dosage with significant hepatomegalias (rats; males): under 60 mg/kg | LD50 ([4]; ip, intraperitoneal): 1180 mg/kg | LD50 ([4]; oral): 920 mg/kg | LD50 ([4]; sc, subcutaneous): > 5000 mg/kg | MIC (Dermatophytes, Others): 4 µg/mL (≈ 9.61 µM) | MIC [5]: 2.8 µg/mL (≈ 6.73 µM) | cases of contact dermatitis (cutaneous mycosis): 5 cases | MIC (Torulopsis glabrata): 1.1 µg/mL (≈ 2.64 µM) | animals healed (Candida albicans [6]): 12.5% | % microbiological healing ([7]; 18 days postinfection): 6% | Negative Cultures to Total Cultures ([7]; 18 days postinfection): 3/48 | % microbiological healing ([7]; 25 days postinfection): 28% | Negative Cultures to Total Cultures ([7]; 25 days postinfection): 13/48 | % microbiological healing ([7]; 32 days postinfection): 44% | Negative Cultures to Total Cultures ([7]; 32 days postinfection): 21/48 | proportion of animals cured ([7]; after 25 days, cream containing 2 % by weight): about 1/4 | MIC (Gram-positive germs): 0.88 µg/mL (≈ 2.11 µM) | NOAEL [8]: ~10 mg/kg | MIC [9]: 32 µg/mL (≈ 76.9 µM)
